For one assay, the system named is L1210 (leukemia). The experiment in a line: Growth inhibition (MTT) of L1210 cells. The class given is cell-based, murine. Conditions: Mus musculus, 48 hours, read-out: 50% growth inhibition concentration. On the procedure:
(§1) Note that the tests were performed as follows. Various kinds of murine cancer cells (L1210 (leukemia)), Colon 26 (colon cancer), B16BL6 (malignant melanoma)) were suspended in RPMI1640 medium containing 10% fetal calf serum and adjusted to 2×10^4 cells/well and 0.1 ml of each of the suspensions was seeded on a 96-well plate. At the same time, a predetermined amount of the substance F-1490 was added and the resultants were cultivated at 37° C. for 48 hours in the air containing 5% CO2. Further, 10 μl of 0.5% MTT (3-[4,5-dimethylthiazol-2-yl] […] tetrazolium bromide) was added and the resultants were cultivated for 4 hours. After the cultivation, 0.1 ml of 10% SDS-0.01N hydrochloric acid was added and absorbance at 570 nm was measured to determine 50% growth inhibition concentration.

Assay [1] concerns bone marrow cells (differentiation into osteoclasts). The experiment in a line: Osteoclast differentiation inhibition: count of tartaric acid-resistant acid phosphatase-positive cells. It counts as cell-based, C57BL/6 mouse. The procedure:
Bone marrow cells were collected from a C57BL/6mouse (female, 6 weeks old) and suspended in RPMI1460 medium that contains 10% fetal calf serum, 1 mM pyruvic acid, 0.1 mM non-essential amino acids (manufactured by Gibco), 500 μM 2-mercaptoethanol, 200 ng/ml parathyroid hormone related protein (PTHrP) and 50 μg/ml L-ascorbic acid and 1 ml of the suspension adjusted to a cell population of 1.5×10^6 cells/well was inoculated on a 24-well microplate. At the same time a test sample was added in appropriate amounts. On days 2 and 4 from the start of the cultivation, half the amount of the medium is exchanged with fresh medium containing the test sample. On day 7 from the start of the cultivation, the medium is removed by suction and the cells are fixed with an acetone:methanol (1:1) solution, to thereby allow tartaric acid-resistant acid phosphatase-positive cells stained. That is, 0.4 ml of a 0.2-M acetate buffer (pH 5.2) containing a staining fluid (0.1 mg/ml Naphthol AS-MX phosphate (Sigma AB), 0.6 mg/ml Fast red violet LB sal (Sigma AB) and 20 mM tartaric acid is added to each well and the resultants are allowed to react at 37° C. for 1 hour. After color development, the number of tartaric acid-resistant acid phosphatase-positive cells, which is an index of differentiation into osteoclasts, is measured under a microscope.
When the test sample contains a substance that is effective for inhibition of osteoclast differentiation, the occurrence of tartaric acid-resistant acid phosphatase-positive cells is inhibited. From changes in the above-mentioned number of cells depending on the concentration of the test sample, an effective concentration range of the test sample can be obtained.

Assay [2] has as its system B16BL6 (malignant melanoma). Description: Growth inhibition (MTT) of B16BL6 cells. Conditions: Mus musculus, B16-BL6, 48 hours, read-out: 50% growth inhibition concentration. It counts as cell-based, murine. The procedure: as §1
Another assay concerns Colon 26 (colon cancer). The experiment in a line: Growth inhibition (MTT) of Colon 26 cells. The class given is cell-based, murine. Conditions: Mus musculus, Colon26 cells, 48 hours, read-out: 50% growth inhibition concentration. The procedure: as §1

Consider one compound from US7060821B2, “Osteoclast differentiation inhibitors” (Mercian Corporation, priority 2002, dated 2006).

Values after ≈ are worked out from the molar mass of the structure shown.

What is called inhibition is how much of the control response was suppressed. As for `O=C(O)c1cccc2c1NC1CCCCC1(O)O2` (centres unmarked) [Substance F-1490-A], the IC50 is over 50 µg/mL in the assay with L1210 (leukemia); 0.65 µg/mL (≈ 2.61 µM) in assay [1] (Mus musculus, Table 1, osteoclast differentiation test, read-out: 50% growth inhibition concentration); over 50 µg/mL in assay [2]; over 50 µg/mL in the assay on Colon 26 (colon cancer). Besides, the inhibition at 0.2 µg/mL in assay [1] (Osteoclast, 168 h, concentration 0.20 μg/ml, day 7, PTHrP-stimulated mouse bone marrow cells, read-out: Inhibition rate of differentiation into osteoclasts (%)) turned out to be 2%. Further, the inhibition at 0.78 µg/mL in assay [1] (Osteoclast, 168 h, concentration 0.78 μg/ml, day 7, PTHrP-stimulated mouse bone marrow cells, read-out: Inhibition rate of differentiation into osteoclasts (%)) came to 63%. Moreover, in assay [1] (Osteoclast, 168 h, concentration 3.10 μg/ml, day 7, PTHrP-stimulated mouse bone marrow cells, read-out: Inhibition rate of differentiation into osteoclasts (%)), the inhibition at 3.1 µg/mL came out at 74%. Moreover, in assay [1] (Osteoclast, 168 h, concentration 12.50 μg/ml, day 7, PTHrP-stimulated mouse bone marrow cells, read-out: Inhibition rate of differentiation into osteoclasts (%)), the inhibition at 12.5 µg/mL was 87%.
